Results on three compounds are retold here after ChEMBL document CHEMBL4351025, “Indole-nitroimidazole conjugates as efficient manipulators to decrease the genes expression of methicillin-resistant Staphylococcus aureus” (Eur J Med Chem, 2019).

Data set [1] concerns Enterococcus faecalis. Put plainly: Antibacterial activity against Enterococcus faecalis incubated for 24 hrs by two fold serial dilution method. Type of data set: functional.
Data set [2] relates to Acinetobacter baumannii. Nature of the data set: Antibacterial activity against Acinetobacter baumannii incubated for 24 hrs by two fold serial dilution method. Format: functional.
Data set [3] concerns Klebsiella pneumoniae. Put plainly: Antibacterial activity against Klebsiella pneumoniae incubated for 24 hrs by two fold serial dilution method. Type of data set: functional.
The test system of data set [4] is Acinetobacter baumannii. Nature of the data set: Potency index, ratio of MIC for norfloxacin to test compound MIC for antibacterial activity against Acinetobacter baumannii. Type of data set: functional.
The test system of data set [5] is Staphylococcus aureus. Put plainly: Antibacterial activity against Staphylococcus aureus ATCC 29213 incubated for 24 hrs by two fold serial dilution method. Type of data set: functional. As to conditions: ATCC 29213, 24 h.
Data set [6] concerns Staphylococcus aureus. Nature of the data set: Antibacterial activity against methicillin-resistant Staphylococcus aureus N315 incubated for 24 hrs by two fold serial dilution method. Format: functional. As to conditions: N315, 24 h.
The test system of data set [7] is Escherichia coli. Put plainly: Antibacterial activity against Escherichia coli incubated for 24 hrs by two fold serial dilution method. Format: functional.
The test system of data set [8] is Klebsiella pneumoniae. Put plainly: Potency index, ratio of MIC for clinafloxacin to test compound MIC for antibacterial activity against Klebsiella pneumoniae. Format: functional.
Data set [9] deals with Pseudomonas aeruginosa. Nature of the data set: Antibacterial activity against Pseudomonas aeruginosa incubated for 24 hrs by two fold serial dilution method. Format: functional.
The test system of data set [10] is Enterococcus faecalis. Nature of the data set: Potency index, ratio of MIC for norfloxacin to test compound MIC for antibacterial activity against Enterococcus faecalis. Format: functional.
Data set [11] is described as follows: Cytotoxicity activity against human A549 cells assessed as cell viability at 2 to 64 ug/ml incubated for 24 hrs by MTT assay relative to control. Type of data set: cell-based. To be noted: read-out: Activity. In general terms: Formazan colour is commonly taken as a measure of viable cells.
In data set [12] the target is T1, Albumin (Homo sapiens, UniProt P02768). Put plainly: Binding affinity to HSA assessed as binding constant at 300 K by spectrofluorimetric based Scatchard method. To be noted: isolated protein. Format: ADME.
Data set [13] relates to Staphylococcus aureus. Nature of the data set: Antibacterial activity against methicillin-resistant Staphylococcus aureus N315 assessed as reduction in MecA gene expression incubated for 3 hrs by qRT-PCR analysis. Type of data set: functional, organism-based. A general note: In qPCR the cycle at which signal appears reflects the starting amount.
For data set [14], the target named is T1, Albumin. Nature of the data set: Binding affinity to HSA assessed as binding constant at 290 K by spectrofluorimetric based Scatchard method. Format: ADME. As to conditions: isolated protein.
The target in data set [15] is T1, Albumin. Nature of the data set: Ratio of binding affinity for HSA assessed as binding constant at 298K in presence of Ca2+ ion to binding affinity to HSA at 298K by spectrofluorimetric based Scatchard method. Format: ADME. To be noted: isolated protein.
Data set [16] addresses T1, Albumin. Put plainly: Binding affinity to HSA assessed as binding constant at 298K in presence of Mg2+ ion by spectrofluorimetric based Scatchard method. As to conditions: isolated protein. Type of data set: ADME.
Data set [17] addresses T1, Albumin. Put plainly: Binding affinity to HSA assessed as Stem-Volmer quenching constant at 300 K by spectrofluorimetric analysis. Type of data set: ADME. As to conditions: isolated protein.
For data set [18], the target named is T1, Albumin. Nature of the data set: Ratio of binding affinity for HSA assessed as binding constant at 298K in presence of Mg2+ ion to binding affinity to HSA at 298K by spectrofluorimetric based Scatchard method. Type of data set: ADME. As to conditions: isolated protein.
Data set [19] addresses T1, Albumin. Nature of the data set: Binding affinity to HSA assessed as binding constant at 313 K by spectrofluorimetric based Scatchard method. Type of data set: ADME. As to conditions: isolated protein.
Data set [20] concerns Staphylococcus aureus. Put plainly: Antibacterial activity against methicillin-resistant Staphylococcus aureus N315 at 0.5 times MIC measured over 6 passages. Type of data set: functional, organism-based.
The nature of data set [21]: Cytotoxicity activity against human BEAS2B cells assessed as cell viability at 64 ug/ml incubated for 24 hrs by MTT assay relative to control. Type of data set: cell-based. As to conditions: BEAS-2B cells, read-out: Activity.
For data set [22], the system named is Staphylococcus aureus. Put plainly: Antibacterial activity against methicillin-resistant Staphylococcus aureus N315 assessed as reduction in GyrB gene expression incubated for 3 hrs by qRT-PCR analysis. Format: functional, organism-based.
The target of data set [23] is T1, Albumin. Put plainly: Binding affinity to HSA assessed as binding constant at 298K by spectrofluorimetric based Scatchard method. Format: ADME. To be noted: isolated protein.
The target in data set [24] is T1, Albumin. Put plainly: Binding affinity to HSA assessed as binding constant at 298K in presence of Ca2+ ion by spectrofluorimetric based Scatchard method. Type of data set: ADME. As to conditions: isolated protein.
The target of data set [25] is T1, Albumin. Put plainly: Binding affinity to HSA assessed as quenching constant at 313 K by spectrofluorimetric analysis. Type of data set: ADME. To be noted: isolated protein.
For data set [26], the target named is T1, Albumin. Nature of the data set: Binding affinity to HSA assessed as effective quenching constant at 313 K by spectrofluorimetric based Stern-Volmer method. Format: ADME. To be noted: isolated protein.
Data set [27] deals with DNA. Nature of the data set: Binding affinity to methicillin-resistant Staphylococcus aureus N315 DNA by neutral red dye based UV-visible spectrophotometric method. Type of data set: nucleic-acid assay. As to conditions: Staphylococcus aureus subsp. aureus N315.
For data set [28], the system named is Staphylococcus aureus. Put plainly: Antibacterial activity against methicillin-resistant Staphylococcus aureus N315 assessed as reduction in FemB gene expression incubated for 3 hrs by qRT-PCR analysis. Format: functional, organism-based.
Data set [29] deals with T1, Albumin. Nature of the data set: Binding affinity to HSA assessed as Stem-Volmer quenching constant at 313 K by spectrofluorimetric analysis. Format: ADME. As to conditions: isolated protein.
Data set [30] relates to DNA. Put plainly: Binding affinity to methicillin-resistant Staphylococcus aureus DNA assessed as reduction in neutral red binding to DNA by UV-visible spectrophotometric method. Type of data set: nucleic-acid assay.
For data set [31], the target named is T1, Albumin. Nature of the data set: Binding affinity to HSA assessed as Stem-Volmer quenching constant at 290 K by spectrofluorimetric analysis. Format: ADME. To be noted: isolated protein.
In data set [32] the target is T1, Albumin. Put plainly: Binding affinity to HSA assessed as effective quenching constant at 290 K by spectrofluorimetric based Stern-Volmer method. Format: ADME. As to conditions: isolated protein.
The target of data set [33] is T1, Albumin. Nature of the data set: Binding affinity to HSA assessed as effective quenching constant at 300 K by spectrofluorimetric based Stern-Volmer method. Format: ADME. To be noted: isolated protein.
Data set [34] deals with T1, Albumin. Nature of the data set: Binding affinity to HSA assessed as quenching constant at 290 K by spectrofluorimetric analysis. Format: ADME. To be noted: isolated protein.
Data set [35] concerns Staphylococcus aureus. Nature of the data set: Induction of membrane permeabilization in methicillin-resistant Staphylococcus aureus N315 assessed as increase in fluorescence intensity at 12 times MIC measured within 70 mins by propidium iodide staining based fluorescence assay. Format: functional, organism-based.
Data set [36] concerns the target T1, Albumin. Put plainly: Binding affinity to HSA assessed as quenching constant at 300 K by spectrofluorimetric analysis. Format: ADME. As to conditions: isolated protein.
Data set [37] concerns DNA. Nature of the data set: Binding affinity to methicillin-resistant Staphylococcus aureus N315 DNA assessed as hyperchromic effect by neutral red dye based UV-visible spectrophotometric method. Format: nucleic-acid assay. As to conditions: Staphylococcus aureus subsp. aureus N315.

Values after ≈ are worked out from the molar mass of the structure shown. Active and inactive are the calls of the source. The rule behind the calls is not given here.

T1 sequence (P02768 whole entry): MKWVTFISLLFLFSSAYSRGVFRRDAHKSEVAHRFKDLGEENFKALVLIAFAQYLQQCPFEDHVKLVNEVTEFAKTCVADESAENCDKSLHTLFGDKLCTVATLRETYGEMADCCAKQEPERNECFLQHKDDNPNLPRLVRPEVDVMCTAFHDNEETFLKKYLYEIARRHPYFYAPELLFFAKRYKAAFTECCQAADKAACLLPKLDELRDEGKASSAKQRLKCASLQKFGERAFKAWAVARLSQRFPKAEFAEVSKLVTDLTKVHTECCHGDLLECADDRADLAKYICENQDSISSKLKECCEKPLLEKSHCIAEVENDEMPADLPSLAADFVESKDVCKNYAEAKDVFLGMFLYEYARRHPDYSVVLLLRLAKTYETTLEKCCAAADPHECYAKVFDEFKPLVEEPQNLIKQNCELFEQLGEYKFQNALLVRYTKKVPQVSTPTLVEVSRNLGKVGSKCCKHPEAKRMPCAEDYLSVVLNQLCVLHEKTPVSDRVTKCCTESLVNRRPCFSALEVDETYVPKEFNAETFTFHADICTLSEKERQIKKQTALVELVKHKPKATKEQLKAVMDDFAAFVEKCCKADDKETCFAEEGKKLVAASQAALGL

What is called MIC is the lowest concentration found to suppress growth. Read a high MIC as weaker potency. `CCN(CC)C(=O)Cn1cc(/C=C(/C(C)=O)n2cc([N+](=O)[O-])nc2C)c2ccccc21`: the MIC came out at 64 µg/mL (≈ 151 µM) in data set [1]; 1 µg/mL (≈ 2.36 µM) in [2]; 8 µg/mL (≈ 18.9 µM) in [3]; 128 µg/mL (≈ 302 µM) in data set [5]; 16 µg/mL (≈ 37.8 µM) in data set [6]; 16 µg/mL (≈ 37.8 µM) in [7]. The same compound gave an MIC in [9] of 16 µg/mL (≈ 37.8 µM). For the same compound, the Ratio in data set [4] was found to be 8; in data set [8], 4.
In the case of `CC(=O)/C(=C/c1cn(CC(=O)N2CCN(Cc3ccc(F)cc3)CC2)c2ccccc12)n1cc([N+](=O)[O-])nc1C`, the minimum inhibitory concentration (MIC) is 2 µg/mL (≈ 3.67 µM) in data set [1]; 32 µg/mL (≈ 58.8 µM) in data set [2]; 16 µg/mL (≈ 29.4 µM) in data set [3]; 8 µg/mL (≈ 14.7 µM) in data set [5]; 32 µg/mL (≈ 58.8 µM) in [6]; 16 µg/mL (≈ 29.4 µM) in data set [7]. In addition, it took 32 µg/mL (≈ 58.8 µM) to inhibit growth in data set [9] (MIC). In addition, the Ratio in [10] amounted to 2.
With `CC(=O)/C(=C/c1cn(CC(=O)N2CCCCC2)c2ccccc12)n1cc([N+](=O)[O-])nc1C`, the viability at 24 h in [11] was greater than 75%. Also, the Kb in data set [12] is reported as 5.73 ×10⁴ L/mol; in data set [14], 5.88 ×10⁴ L/mol; in data set [16] it was 4.766 ×10⁴ L/mol; in data set [19], 4.95 ×10⁴ L/mol; in [23], 4.624 ×10⁴ L/mol; in data set [24], 5.729 ×10⁴ L/mol. Moreover, the MIC in data set [1] came to 32 µg/mL (≈ 73.5 µM); in data set [2], 128 µg/mL (≈ 294 µM); in data set [3] it was 8 µg/mL (≈ 18.4 µM); in data set [5], 128 µg/mL (≈ 294 µM); in data set [6], 1 µg/mL (≈ 2.3 µM); in data set [7], 1 µg/mL (≈ 2.3 µM). For the same compound, in [9], 128 µg/mL (≈ 294 µM) was the least that counted as inhibitory (MIC). Also, the outcome in data set [13], in data set [20], in [22], in [28], in data set [30] and in [35] was Active. The result in data set [37] was Active. The Ratio worked out at 124% in data set [15] and 103% in [18]. In addition, the KSV in data set [17] was determined as 7.63 ×10⁴ L/mol; in data set [29] it was 6.35 ×10⁴ L/mol; in data set [31], 8.14 ×10⁴ L/mol. Besides, the viability at 24 h, 64 ug/ml in data set [21] is 74%. Also, the Kq amounted to 0.99 ×10¹³ L/mol/s in [25]; 56900 M⁻¹ in [26]; 132000 M⁻¹ in data set [32]; 79800 M⁻¹ in [33]; 1.27 ×10¹³ L/mol/s in data set [34]; 1.19 ×10¹³ L/mol/s in data set [36]. In addition, the Activity result in data set [27] is “Dose-dependent effect”. For the same compound, the K in [27] was 3.45 ×10⁵ L/mol.
